Legend:
Type in all cases: in vivo
diabetic WT mice [1] = experiment: Left ventricular ejection fraction by echocardiography after MI/R (15 min ischemia, 4 h reperfusion); settings: STZ-diabetic WT mice, insulin 2-6 IU i.p. daily for 2 weeks, vs non-treated diabetic WT mice
Method: (§1) All animals used in MI/R experiments were male mice aged 8-12 wk old. C57BL/6 [wildtype (WT)] mice were obtained from Charles River Laboratories (Wilmington, Mass.). MBL null animals 21, back-crossed 8-10 generations onto the C57BL/6 background, were used as previously described^2,22. All procedures were reviewed and conducted in accordance with the Institute's Animal Care and Use Committee (IACUC). Experiments were performed according to the standards and principles set forth in the National Institutes of Health (Guide for the Care and Use of Laboratory Animals-DHHS publication no. (NIH) 85-23, revised 1985). […] Three days after STZ injection and immediately before MI/R studies, the urine glucose was assessed with Glucostix (Diastix, Bayer, Elkhart, Ind.). […]
(§2) Echocardiography was performed after mice had underwent experimental MI/R as described above. It has been shown that in the mouse model of MI/R, myocardial damage via infarct analysis is directly correlated with loss of function as measured by echocardiography^2. […] Ejection fraction (EF) was calculated both via left ventricular M-mode measurements and via long axis length and short axis area measurements of the left ventricle (LV)^24,25. […] In some animals, long axis and short axis area measurements of the LV were assessed prior to MI/R to assess myocardial dimensions under nonischemic conditions.

diabetic WT mice [2] = experiment: Left ventricular long and short axis area measurements by echocardiography before MI/R; settings: STZ-diabetic WT mice, insulin 2-6 IU i.p. daily for 2 weeks
Method: as §1, §2

diabetic WT mice [3] = experiment: Heart/body weight ratio after 2 weeks of diabetes; settings: STZ-diabetic WT mice, insulin-treated, no MI/R
Method: (§3) All animals used in MI/R experiments were male mice aged 8-12 wk old. C57BL/6 [wildtype (WT)] mice were obtained from Charles River Laboratories (Wilmington, Mass.). MBL null animals 21, back-crossed 8-10 generations onto the C57BL/6 background, were used as previously described^2,22. All procedures were reviewed and conducted in accordance with the Institute's Animal Care and Use Committee (IACUC). Experiments were performed according to the standards and principles set forth in the National Institutes of Health (Guide for the Care and Use of Laboratory Animals-DHHS publication no. (NIH) 85-23, revised 1985). Mice were made diabetic by a single injection of freshly prepared streptozotocin (STZ) solution (200 mg/kg body weight in citrate saline, pH 4.2, i.p., ALEXIS, Lausen, Switzerland)^23. The mice were housed in cages of four mice each and had unlimited access to water and standard mouse chow. Three days after STZ injection and immediately before MI/R studies, the urine glucose was assessed with Glucostix (Diastix, Bayer, Elkhart, Ind.). Mice with urine glucose>500 mg/dl in both tests were presumed to be diabetic. […]
(§4) Hearts were excised and fixed in 10% formalin PBS at 4° C. overnight. […] Serum troponin I concentrations were measured as an index of myocardial cell death using a commercially available ELISA kit (Life Diagnostics, West Chester, Pa.)^26.

diabetic WT mice [4] = experiment: Serum troponin I concentration after MI/R (ELISA); settings: insulin-treated diabetic animals vs non-treated diabetic WT mice; 15 min ischemia, 4 h reperfusion
Method: as §3, §4

diabetic WT mice [5] = experiment: Neutrophil infiltration into the myocardium following MI/R (Ly-6G staining, infrared imaging); settings: diabetic WT mice treated with insulin; 15 min ischemia, 4 h reperfusion
Method: as §3, with “diabetic. A group of STZ-injected mice was intensively treated with Lantus insulin (Sanofi-Aventis, Bridgewater, N.J.) to rule out any potentially cardiotoxic effects of STZ. Dependent on the individual daily urine glucose, 2-6 IU of insulin was injected (i.p.) daily.” for “diabetic.”

diabetic WT mice [6] = experiment: Cardiac progenitor cell (CPC) numbers in heart sections (SCF R/c-kit staining); settings: diabetic WT mice treated with insulin, two weeks of diabetes
Method: as §3, with “diabetic. A group of STZ-injected mice was intensively treated with Lantus insulin (Sanofi-Aventis, Bridgewater, N.J.) to rule out any potentially cardiotoxic effects of STZ. Dependent on the individual daily urine glucose, 2-6 IU of insulin was injected (i.p.) daily.” for “diabetic.”

For insulin, the “cardiac function (ejection fraction) following MI/R” value (diabetic WT mice [1]) was “prevented loss of cardiac function following MI/R”, the “diabetic cardiomyopathy as measured by long and short axis measurements via echocardiography” value (diabetic WT mice [2]) was “protected diabetic WT mice from diabetic cardiomyopathy” and the “diabetic cardiomyopathy / hypertrophic remodeling by heart/body weight ratios” value (diabetic WT mice [3]) was “protected diabetic WT mice from diabetic cardiomyopathy”. The “serum troponin I concentrations after MI/R” value (diabetic WT mice [4]) was “significantly reduced”, the “inflammatory response (neutrophil infiltration into cardiac tissue) after MI/R” value (diabetic WT mice [5]) was “attenuated the inflammatory response” and the “loss of cardiac progenitor cells (CPC) in diabetes” value (diabetic WT mice [6]) was “reversed this effect”.
